Test results taken from patent publication US9271960B2, “Tetrahydrocarbazoles as active agents for inhibiting VEGF production by translational control” (PTC Therapeutics, Inc., priority 2004, dated 2016).

Test system: VEGF
Assay: Hypoxia-inducible endogenous VEGF expression ELISA in HeLa cells
Assay type: cell-based
Conditions: Homo sapiens, HeLa, compounds 1-155, hypoxic conditions (1% O2), VEGF protein by ELISA, read-out: ELISA Activity
Procedure: The ability of compounds of the invention to modulate hypoxia-inducible endogenous VEGF expression is analyzed as follows. VEGF protein levels are monitored by an ELISA assay (R&D Systems). Briefly, HeLa cells are cultured for 24-48 hours under hypoxic conditions (1% O2, 5% CO2, balanced with nitrogen) in the presence or absence of a compound of the invention. The conditioned media is then assayed by ELISA, and the concentration of VEGF is calculated from the standard ELISA curve of each assay.
A dose-response analysis is performed using the ELISA assay and conditions described above. A series of different concentrations (e.g., seven) are analyzed. In parallel, a dose-response cytotoxicity assay is performed using Cell Titer Glo (Promega) under the same conditions as the ELISA to ensure that the inhibition of VEGF expression is not due to cytotoxicity. Dose-response curves are plotted using percentage inhibition versus concentration of the compound, and EC50 and CC50 values are generated for each compound with the maximal inhibition set as 100% and the minimal inhibition as 0%.
Compounds 156-188 in Table 1 are commercially available. In Table 1, each of the represented compounds is followed by one to five stars.

Structure (SMILES)	EC50 [nM]
O=C(NC1CCCc2c1[nH]c1ccc(Br)cc21)c1cnccn1 (stereo not shown) [Compound 74, Pyrazine-2-carboxylic acid (6-bromo-2,3,4,9-tetrahydro-1H-carbazol-1-yl)-amide]	< 10
Brc1ccc2[nH]c3c(c2c1)CCCC3N1CCCC1 (stereo not shown) [Compound 116, 6-Bromo-1-pyrrolidin-1-yl-2,3,4,9-tetrahydro-1H-carbazole]	> 1000
O/N=C1\CCCc2c1[nH]c1ccc(Cl)cc21 [Compound 93]	> 1000
Clc1ccc2[nH]c3c(c2c1Cl)CCCC3n1cccc1 (stereo not shown) [Compound 48, 5,6-Dichloro-1-pyrrol-1-yl-2,3,4,9-tetrahydro-1H-carbazole]	40 to 200
Brc1ccc2[nH]c3c(c2c1)CCCC3Nc1ccccc1 (stereo not shown) [Compound 2, (6-Bromo-2,3,4,9-tetrahydro-1H-carbazol-1-yl)-phenyl-amine]	< 10
OC1CCCc2c1oc1ccc(Br)cc21 (stereo not shown) [Compound 108, 8-Bromo-1,2,3,4-tetrahydro-dibenzofuran-4-ol]	> 1000
Brc1ccc2[nH]c3c(c2c1)CCCC3n1cc2ccsc2c1 (stereo not shown) [Compound 1, 6-Bromo-1-thieno[2,3-c]pyrrol-5-yl-2,3,4,9-tetrahydro-1H-carbazole]	< 10
CCOC(=O)C1CCCc2c1[nH]c1ccc(Br)cc21 (stereo not shown) [Compound 90, 6-Bromo-2,3,4,9-tetrahydro-1H-carbazole-1-carboxylic acid ethyl ester]	> 1000
N#Cc1ccc2[nH]c3c(c2c1)CCCC3n1cccc1 (stereo not shown) [Compound 59, 8-Pyrrol-1-yl-6,7,8,9-tetrahydro-5H-carbazole-3-carbonitrile]	200 to 1000
Brc1ccc2[nH]c3c(c2c1)CCCC3NC1CCC(c2ccccc2)CC1 (stereo not shown) [Compound 27, (6-Bromo-2,3,4,9-tetrahydro-1H-carbazol-1-yl)-(4-phenyl-cyclohexyl)-amine]	10 to 40
O=C(Nc1ccccc1)C1CCCc2c1[nH]c1ccc(Br)cc21 (stereo not shown) [Compound 91, 6-Bromo-2,3,4,9-tetrahydro-1H-carbazole-1-carboxylic acid phenylamide]	> 1000
O/N=C1\CCCc2c1[nH]c1c(Br)cccc21 [Compound 98, 8-Bromo-2,3,4,9-tetrahydro-carbazol-1-one oxime]	> 1000
Brc1ccc2[nH]c3c(c2c1)CCCC3Nc1ccc2c(c1)OCO2 (stereo not shown) [Compound 18, Benzo[1,3]dioxol-5-yl-(6-bromo-2,3,4,9-tetrahydro-1H-carbazol-1-yl)-amine]	< 10
Clc1ccc(NC2CCCc3c2[nH]c2ccc(Br)cc32)cc1 (stereo not shown) [Compound 3, (6-Bromo-2,3,4,9-tetrahydro-1H-carbazol-1-yl)-(4-chloro-phenyl)-amine]	< 10
N#Cc1ccc(C(=O)NC2CCCc3c2[nH]c2ccc(Br)cc32)cc1 (stereo not shown) [Compound 132, N-(6-Bromo-2,3,4,9-tetrahydro-1H-carbazol-1-yl)-4-cyano-benzamide]	10 to 40
O=C(NC1CCCc2c1[nH]c1ccc(Br)cc21)c1cccnc1 (stereo not shown) [Compound 58, N-(6-Bromo-2,3,4,9-tetrahydro-1H-carbazol-1-yl)-nicotinamide]	40 to 200
Fc1ccc(NC2CCCc3c2[nH]c2ccc(Br)cc32)cc1 (stereo not shown) [Compound 24, (6-Bromo-2,3,4,9-tetrahydro-1H-carbazol-1-yl)-(4-fluoro-phenyl)-amine]	10 to 40

Structure (SMILES)	EC50 [nM]
COc1ccc2[nH]c3c(c2c1)CCC/C3=N\O [Compound 84, 6-Methoxy-2,3,4,9-tetrahydro-carbazol-1 one oxime]	> 1000
Clc1ccccc1NC1CCCc2c1[nH]c1ccc(Br)cc21 (stereo not shown) [Compound 29, (6-Bromo-2,3,4,9-tetrahydro-1H-carbazol-1-yl)-(2-chloro-phenyl)-amine]	10 to 40
FC(F)(F)c1ccc(NC2CCCc3c2[nH]c2ccc(C(F)(F)F)cc32)cc1 (stereo not shown) [Compound 140, (4-Trifluoromethyl-phenyl)-(6-trifluoromethyl-2,3,4,9-tetrahydro-1H-carbazol-1-yl)-amine]	10 to 40
O=C(NC1CCCc2c1[nH]c1ccc(Br)cc21)c1cc2ccccc2o1 (stereo not shown) [Compound 124, Benzofuran-2-carboxylic acid (6-bromo-2,3,4,9-tetrahydro-1H-carbazol-1-yl)-amide]	200 to 1000
COc1cccc(C(=O)NC2CCCc3c2[nH]c2ccc(Br)cc32)c1OC (stereo not shown) [Compound 39, N-(6-Bromo-2,3,4,9-tetrahydro-1H-carbazol-1-yl)-2,3-dimethoxy-benzamide]	40 to 200
O=C1c2sccc2CN1C1CCCc2c1[nH]c1ccc(Cl)cc21 (stereo not shown) [Compound 148, 5-(6-Chloro-2,3,4,9-tetrahydro-1H-carbazol-1-yl)-4,5-dihydro-thieno[2,3-c]pyrrol-6-one]	< 10
O=C(NC1CCCc2c1[nH]c1ccc(Br)cc21)C1CC1 (stereo not shown) [Compound 147, Cyclopropanecarboxylic acid (6-bromo-2,3,4,9-tetrahydro-1H-carbazol-1-yl)-amide]	40 to 200
O=C(NC1CCCc2c1[nH]c1ccc(Cl)cc21)c1ccco1 (stereo not shown) [Compound 144, Furan-2-carboxylic acid (6-chloro-2,3,4,9-tetrahydro-1H-carbazol-1-yl)-amide]	40 to 200
O=C(O)C1CCCc2c1[nH]c1ccc(Br)cc21 (stereo not shown) [Compound 85, 6-Bromo-2,3,4,9-tetrahydro-1H-carbazole-1-carboxylic acid]	> 1000
Cn1cccc1C(=O)NC1CCCc2c1[nH]c1ccc(Br)cc21 (stereo not shown) [Compound 155, 1-Methyl-1H-pyrrole-2-carboxylic acid (6-bromo-2,3,4,9-tetrahydro-1H-carbazol-1-yl)-amide]	10 to 40
Fc1cccc(NC2CCCc3c2[nH]c2ccc(Br)cc32)c1F (stereo not shown) [Compound 32, (6-Bromo-2,3,4,9-tetrahydro-1H-carbazol-1-yl)-(2,3-difluoro-phenyl)-amine]	10 to 40
O=C(NC1CCCc2c1[nH]c1ccc(Br)cc21)c1ccc(Cl)cc1 (stereo not shown) [Compound 134, N-(6-Bromo-2,3,4,9-tetrahydro-1H-carbazol-1-yl)-4-chloro-benzamide]	10 to 40
CN(C(=O)c1cccc(Cl)c1)C1CCCc2c1[nH]c1ccc(Br)cc21 (stereo not shown) [Compound 66, N-(6-Bromo-2,3,4,9-tetrahydro-1H-carbazol-1-yl)-3-chloro-N-methyl-benzamide]	200 to 1000
c1ccn(C2CCCc3c2[nH]c2ccc(N4CCCC4)cc32)c1 (stereo not shown) [Compound 106, 6-Pyrrolidin-1-yl-1-pyrrol-1-yl-2,3,4,9-tetrahydro-1H-carbazole]	> 1000
Brc1ccc2oc3c(c2c1)CCCC3Nc1ccccc1 (stereo not shown) [Compound 107, (8-Bromo-1,2,3,4-tetrahydro-dibenzofuran-4-yl)-phenyl-amine]	> 1000
O=C1CCCc2c1[nH]c1c(Br)cccc21 [Compound 97, 8-Bromo-2,3,4,9-tetrahydro-carbazol-1-one]	> 1000

Same assay, conditions: Homo sapiens, HeLa, compounds 191-239, hypoxic conditions, VEGF protein by ELISA, read-out: ELISA Activity EC50

Structure (SMILES)	EC50 [nM]
CN1CCN(CC(O)COc2ccc(C3CCCc4c3[nH]c3ccc(Br)cc43)cc2)CC1 (stereo not shown) [Compound 201]	10 to 40
OC(COc1ccc(C2CCCCc3c2[nH]c2ccc(Cl)cc32)cc1)Cn1cncn1 (stereo not shown) [Compound 235]	10 to 40
Cc1ccc(C2c3[nH]c4ccc(Br)cc4c3CCC2O)cc1 (stereo not shown) [Compound 237]	200 to 1000
COCCN(CCOC)CC(O)COc1ccc(C2CCCc3c2[nH]c2ccc(Cl)cc32)cc1 (stereo not shown) [Compound 216]	10 to 40
Cc1cc(C(=O)NC2CCCc3c2[nH]c2ccc(Br)cc32)no1 (stereo not shown) [Compound 191]	< 10
OC(COc1ccc(C2CCCc3c2[nH]c2ccc(Cl)cc32)cc1)Cn1ccnn1 (stereo not shown) [Compound 221]	10 to 40

Same assay, conditions: Homo sapiens, HeLa, purchased compounds 156-188, hypoxic conditions, VEGF protein by ELISA, read-out: ELISA Activity

Structure (SMILES)	EC50 [nM]
COC(CNC1CCCc2c1[nH]c1ccc(C)cc21)OC (stereo not shown) [Compound 165, (2,2-Dimethoxy-ethyl)-(6-methyl-2,3,4,9-tetrahydro-1H-carbazol-1-yl)-amine]	> 1000
Brc1ccc2[nH]c3c(c2c1)CCCC3n1cccc1 (stereo not shown) [Compound 156, 6-Bromo-1-pyrrol-1-yl-2,3,4,9-tetrahydro-1H-carbazole]	< 10
Cc1ccc2c(c1)c1c3n2CCN(C(=O)c2ccccc2Cl)C3CCC1 (stereo not shown) [Compound 171, (2-Chloro-phenyl)-(8-methyl-1,2,3a,4,5,6-hexahydro-pyrazino[3,2,1-jk]carbazol-3-yl)-methanone]	> 1000
COc1ccc(Oc2ccc3c(c2)c2c4n3CCNC4CCC2)cc1 (stereo not shown) [Compound 187, 8-(4-Methoxy-phenoxy)-2,3,3a,4,5,6-hexahydro-1H-pyrazino[3,2,1-jk]carbazole methanesulfonic acid]	> 1000
CC(=O)NC1CCCc2c1[nH]c1ccc(C)cc21 (stereo not shown) [Compound 178, N-(6-Methyl-2,3,4,9-tetrahydro-1H-carbazol-1-yl)-acetamide]	> 1000
CCNC1CCCc2c1[nH]c1ccc(C)cc21 (stereo not shown) [Compound 185, Ethyl-(6-methyl-2,3,4,9-tetrahydro-1H-carbazol-1-yl)-amine]	> 1000

Same assay, conditions: Homo sapiens, HeLa, purchased compounds 156-188, hypoxic conditions, VEGF protein by ELISA, read-out: ELISA EC50

Structure (SMILES)	EC50 [nM]
COC(CNC1CCCc2c1[nH]c1ccc(C)cc21)OC (stereo not shown) [Compound 165, (2,2-Dimethoxy-ethyl)-(6-methyl-2,3,4,9-tetrahydro-1H-carbazol-1-yl)-amine]	5200
Brc1ccc2[nH]c3c(c2c1)CCCC3n1cccc1 (stereo not shown) [Compound 156, 6-Bromo-1-pyrrol-1-yl-2,3,4,9-tetrahydro-1H-carbazole]	10
Cc1ccc2c(c1)c1c3n2CCN(C(=O)c2ccccc2Cl)C3CCC1 (stereo not shown) [Compound 171, (2-Chloro-phenyl)-(8-methyl-1,2,3a,4,5,6-hexahydro-pyrazino[3,2,1-jk]carbazol-3-yl)-methanone]	> 10000
COc1ccc(Oc2ccc3c(c2)c2c4n3CCNC4CCC2)cc1 (stereo not shown) [Compound 187, 8-(4-Methoxy-phenoxy)-2,3,3a,4,5,6-hexahydro-1H-pyrazino[3,2,1-jk]carbazole methanesulfonic acid]	18000
CC(=O)NC1CCCc2c1[nH]c1ccc(C)cc21 (stereo not shown) [Compound 178, N-(6-Methyl-2,3,4,9-tetrahydro-1H-carbazol-1-yl)-acetamide]	> 10000
CCNC1CCCc2c1[nH]c1ccc(C)cc21 (stereo not shown) [Compound 185, Ethyl-(6-methyl-2,3,4,9-tetrahydro-1H-carbazol-1-yl)-amine]	> 10000

Same assay, conditions: Homo sapiens, compounds 1-155, hypoxic conditions (1% O2), VEGF protein by ELISA, read-out: ELISA Activity

Structure (SMILES)	EC50 [nM]
O=C(NC1CCCc2c1[nH]c1ccc(Br)cc21)Oc1ccccc1 (stereo not shown) [Compound 75, (6-Bromo-2,3,4,9-tetrahydro-1H-carbazol-1-yl)-carbamic acid phenyl ester]	> 1000
